Reference: patent US5451516A, “Bifunctional protein from carrots (Daucus carota) with aspartokinase and homoserine dehydrogenase activities” (priority 1991, dated 1995)
Where two headings read alike, the source gives them in different places. Values belong to the molecule of their own block, whether it stands above or below them.

Columns and labels:
[1] = system: carrot (Daucus carota L. cv Danvers) aspartokinase form I (AKI, Peak I; lysine-sensitive) of the bifunctional AK-HSDH protein; test: Aspartokinase activity, hydroxamate method (first eluting DEAE peak, AKI); type: biochemical; details: for % Control AK activity +lys (10 mM): 10 mM lysine; for % Control AK activity +thr (10 mM): 10 mM threonine
Protocol: Aspartokinase activity was assayed by the hydroxamate method as described in P. Bryan et al., Biochem Biophys Res Comm 41: 1211-1217 (1970). […] The reaction was terminated by the addition of a solution of 0.37 M FeCl3, 0.20 M trichloroacetic aid and 0.72 M HCl. One unit (U) of activity produced 1 umol β-aspartylphosphate hr^-1. Zero time controls were included.

[2] = target: T1, carrot (Daucus carota L. cv Danvers) aspartokinase form II (AKII, Peak II; threonine-sensitive) of the bifunctional AK-HSDH protein (Daucus carota, UniProt P37142); test: Aspartokinase activity, hydroxamate method (second eluting DEAE peak, AKII); type: biochemical
T1 construct: AK was purified by a series of column chromatography steps; endogenous in cells; host or cells: carrot (Daucus carota L. cv Danvers) cell suspension culture, protein partly purified by gel filtration and DEAE chromatography
T1 sequence (P37142 88-921): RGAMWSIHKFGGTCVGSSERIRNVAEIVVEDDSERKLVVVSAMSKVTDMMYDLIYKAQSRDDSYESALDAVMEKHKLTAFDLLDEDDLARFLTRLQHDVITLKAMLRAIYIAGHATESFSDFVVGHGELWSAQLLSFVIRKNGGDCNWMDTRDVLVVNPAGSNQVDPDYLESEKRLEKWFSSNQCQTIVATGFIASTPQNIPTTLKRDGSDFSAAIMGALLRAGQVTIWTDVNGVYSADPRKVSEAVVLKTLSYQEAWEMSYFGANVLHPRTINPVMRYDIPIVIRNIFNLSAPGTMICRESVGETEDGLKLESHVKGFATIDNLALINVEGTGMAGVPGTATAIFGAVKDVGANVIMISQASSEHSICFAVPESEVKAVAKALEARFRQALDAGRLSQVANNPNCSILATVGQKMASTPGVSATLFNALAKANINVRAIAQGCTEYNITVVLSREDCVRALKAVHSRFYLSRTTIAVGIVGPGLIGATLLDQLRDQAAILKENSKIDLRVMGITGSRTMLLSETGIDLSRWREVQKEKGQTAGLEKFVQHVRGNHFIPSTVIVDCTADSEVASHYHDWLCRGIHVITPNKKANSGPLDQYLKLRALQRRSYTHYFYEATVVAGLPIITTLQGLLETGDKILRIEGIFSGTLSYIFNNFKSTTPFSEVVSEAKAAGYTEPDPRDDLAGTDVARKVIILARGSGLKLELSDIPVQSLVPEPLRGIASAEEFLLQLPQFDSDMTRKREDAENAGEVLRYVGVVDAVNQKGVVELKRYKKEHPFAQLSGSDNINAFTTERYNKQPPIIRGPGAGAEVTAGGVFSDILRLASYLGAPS
Protocol: (§1) The first eluting peak (28-32 min), AKI, was inhibited by lysine and was relatively insensitive to threonine (See Table II). The second peak (44-48 min), AKII, was inhibited by threonine and was relatively insensitive to lysine. These two peaks were kinetically different as well as having different feedback inhibition patterns. The Km(asp) for AKI was approximately 1 mM and for AKII was approximately 9 mM. Experimental conditions could affect which AK activities were observed. AK activity inhibited by lysine was not observed unless lysine was added to the homogenization buffer. If the pH of the sample was lowered to pH 6 before anion exchange, sensitivity to lysine was lost, although the total amount of AK activity remained unchanged. […] Furthermore, the lysine-sensitive activity could not be eluted from the cation-exchange medium with KC1.
AK was purified by a series of column chromatography steps. The cells were harvested after 5 days and disrupted in a nitrogen bomb as described for HSDH (B. Matthews (1989), supra) except that the threonine concentration was reduced to 1 mM and 1 mM lysine was added to the extraction buffer. The crude extract was concentrated by 60% ammonium sulfate before the first gel filtration through Biogel A-0.5 m (4.5 cm×47 cm) equilibrated with 50 mM Tris-HCl pH 7.5, 10 mM 2-mercaptoethanol, 1 mM EDTA, 1 mM lysine, 1 mM threonine and 20% glycerol. Fractions containing AK activity were combined, concentrated by the addition of an equal volume of saturated ammonium sulfate for a second gel filtration through Sephadex G-150 (2.5 cm×39 cm) and equilibrated with the same buffer plus 0.2 M KC1. Fractions with AK activity were combined, concentrated by the addition of an equal volume of saturated ammonium sulfate and dialyzed against 16 mM Tris-HCl pH 7.5, 10 mM 2-mercaptoethanol, 1 mM lysine, 1 mM threonine and 20% glycerol. The dialyzed sample was loaded onto an Altex Spherogel TSK DEAE-5PW column (21.5 mm×15 cm). AK activity was eluted over 65 min with a gradient from 0-0.5 M KCl in 20 mM Mes pH 6, 5 mM 2-mercaptoethanol, 1 mM lysine, 1 mM threonine, and 20% glycerol. Fractions containing activity were combined, diluted four-fold and applied to an Altex Spherogel TSK DEAE-5PW column (7.5 mm×7.5 cm) equilibrated with 50 mM Tris-HCl pH 7.5 containing 5 mM 2-mercaptoethanol,1 mM lysine, 1 mM threonine and 20% glycerol fractions containing AK activity were combined and diluted four-fold and reapplied to the column equilibrated with the same buffer containing 20 mM aspartate. Fractions with AK activity were concentrated by filtration through Centricon-303 filters (Amicon) and stored at -20° C.
Aspartokinase activity was assayed by the hydroxamate method as described in P. Bryan et al., Biochem Biophys Res Comm 41: 1211-1217 (1970). […]

[3] = substrate: N[C@@H](CC(=O)O)C(=O)O; test: as above; type: biochemical, Daucus carota; details: other: AKII, second peak (44-48 min) from DEAE pH 6, 37.0 °C
Protocol: as §1
AK was purified by a series of column chromatography steps. The cells were harvested after 5 days and disrupted in a nitrogen bomb as described for HSDH (B. Matthews (1989), supra) except that the threonine concentration was reduced to 1 mM and 1 mM lysine was added to the extraction buffer. The crude extract was concentrated by 60% ammonium sulfate before the first gel filtration through Biogel A-0.5 m (4.5 cm×47 cm) equilibrated with 50 mM Tris-HCl pH 7.5, 10 mM 2-mercaptoethanol, 1 mM EDTA, 1 mM lysine, 1 mM threonine and 20% glycerol. […]

Molecule: NCCCC[C@H](N)C(=O)O [lys, lysine]
- % Control AK activity +lys (10 mM) ([1]; prep ak32I): 21 % Control
- % Control AK activity +lys (10 mM) ([1]; prep ak33I): 39 % Control
- remaining activity at 10000 µM ([2]; read-out: % Control AK activity +lys (10 mM), prep ak33II, 10 mM lysine): 75%
- remaining activity at 10000 µM ([2]; read-out: % Control AK activity +lys (10 mM), prep ak45II, 10 mM lysine): 91%

- % Control AK activity +thr (10 mM) ([1]; prep ak32I): 68 % Control
- % Control AK activity +thr (10 mM) ([1]; prep ak33I): 71 % Control
- remaining activity at 10000 µM ([2]; prep ak33II, 10 mM threonine, read-out: % Control AK activity +thr (10 mM)): 32%
- remaining activity at 10000 µM ([2]; prep ak45II, 10 mM threonine, read-out: % Control AK activity +thr (10 mM)): 33%
Molecule: C[C@@H](O)[C@H](N)C(=O)O [thr, threonine]

B1: carrot (Daucus carota L. cv Danvers) aspartokinase form II (AKII, Peak II; threonine-sensitive) of the bifunctional AK-HSDH protein (Daucus carota) (protein)
chain: T1 sequence (P37142 88-921)
notes: AK was purified by a series of column chromatography steps; The cells were harvested after 5 days; endogenous in cells; host or cells: carrot (Daucus carota L. cv Danvers) cell suspension culture, protein partly purified by gel filtration and DEAE chromatography
- Km [3]: 9 mM
